The structures appear in SMILES notation.

The target of the test is T1, human histamine H3 receptor (Homo sapiens, UniProt Q9Y5N1).
T1 construct: One microgram of supercoiled H3 receptor cDNA was added to the cells and mixed; expressed in transfected cells; membranes prepared from cell pellets
Kind of test: [3H]-N-methylhistamine binding. The note with it: membranes of histamine H3 receptor-expressing SK-N-MC cells; 0.8 nM [3H]-N-methylhistamine; 45 min at 25° C.; read-out: Ki. As to the method: Transfection of Cells with Human Histamine Receptor
A 10 cm tissue culture dish with a confluent monolayer of SK-N-MC cells was split two days prior to transfection. Using sterile technique the media were removed and the cells were detached from the dish by the addition of trypsin. One fifth of the cells were then placed onto a new 10 cm dish. Cells were grown in a 37° C. incubator with 5% CO2 in Minimal Essential Media Eagle with 10% Fetal Bovine Serum. After two days cells were approximately 80% confluent. These were removed from the dish with trypsin and pelleted in a clinical centrifuge. The pellet was then re-suspended in 400 μL complete media and transferred to an electroporation cuvette with a 0.4 cm gap between the electrodes. One microgram of supercoiled H3 receptor cDNA was added to the cells and mixed. The voltage for the electroporation was set at 0.25 kV, the capacitance was set at 960 μF. After electroporation the cells were diluted into 10 mL complete media and plated onto four 10 cm dishes. Because of the variability in the efficiency of electroporation, four different concentrations of cells were plated. The ratios used were; 1:20, 1:10, 1:5, with the remainder of the cells being added to the fourth dish. The cells were allowed to recover for 24 hours before adding the selection media (complete media with 600 μg/mL G418). After 10 days dishes were analyzed for surviving colonies of cells. Dishes with well isolated colonies were used. Cells from individual colonies were isolated and tested. SK-N-MC cells were used because they give efficient coupling for inhibition of adenylate cyclase. The clones that gave the most robust inhibition of adenylate cyclase in response to histamine were used for further study.
[^3H]-N-methylhistamine Binding
Cell pellets from histamine H3 receptor-expressing SK-N-MC cells were homogenized in 20 mM Tris HCl/0.5 mM EDTA. Supernatants from a 800 g spin were collected, recentrifuged at 30,000 g for 30 min. Pellets were re-homogenized in 50 mM Tris/5 mM EDTA (pH 7.4). Membranes were incubated with 0.8 nM [^3H]-N-methylhistamine plus/minus test compounds for 45 min at 25° C. and harvested by rapid filtration over GF/C glass fiber filters (pretreated with 0.3% polyethylenimine) followed by four washes with ice cold buffer. Filters were dried, added to 4 mL scintillation cocktail and then counted on a liquid scintillation counter. Non-specific binding was defined with 10 μM histamine.

T1 sequence (Q9Y5N1 whole entry): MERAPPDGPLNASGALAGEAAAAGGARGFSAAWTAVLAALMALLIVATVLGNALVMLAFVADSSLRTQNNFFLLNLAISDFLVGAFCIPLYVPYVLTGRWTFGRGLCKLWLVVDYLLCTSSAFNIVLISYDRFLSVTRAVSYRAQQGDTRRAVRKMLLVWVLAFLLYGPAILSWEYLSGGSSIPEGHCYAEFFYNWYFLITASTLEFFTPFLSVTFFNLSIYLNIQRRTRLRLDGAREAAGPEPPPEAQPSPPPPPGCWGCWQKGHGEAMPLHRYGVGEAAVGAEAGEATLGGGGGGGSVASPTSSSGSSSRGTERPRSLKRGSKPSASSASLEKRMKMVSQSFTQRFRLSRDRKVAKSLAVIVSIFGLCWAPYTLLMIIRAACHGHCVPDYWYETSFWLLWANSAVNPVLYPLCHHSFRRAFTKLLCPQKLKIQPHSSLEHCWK

`C(#Cc1cccc(CN2CCCCCCCCCCCC2)c1)CCN1CCCCC1` [Example 56, 1-[3-(4-Piperidin-1-yl-but-1-ynyl)-benzyl]-azacyclotridecane]: the Ki – broadly, the equilibrium dissociation constant of an inhibitor or competing ligand from its target – was determined as 0.013 µM.

The values above are taken from patent US7446104B2, “Phenylalkynes” (Ortho-McNeil Pharmaceutical, Inc., priority 2001, dated 2008).
